Source: patent publication US12692254B2, “Benzimidazole inhibitors of PAD enzymes” (BRISTOL-MYERS SQUIBB COMPANY, priority 2018, dated 2026)

target: human PAD4 (hPAD4) (Homo sapiens, UniProt Q9UM07); assay: RFMS human PAD4 functional assay (rapid-fire mass spectrum); assay type: biochemical; conditions: 5 nM hPAD4 enzyme, 250 μM BAEE, 50 μM Calcium; 30 min preincubation, 90 min reaction at 37° C.
Experimental: Compounds of the present invention were assayed as inhibitors of PAD4 using the assay protocol described below.
RFMS tinman PAD4 Functional Assay:
Compounds were solubilized in 100% DMSO to achieve a 10 mM compound concentration. Compound stock solutions were stored at RT. A series of dilutions were prepared in DMSO and mixed 8 times with 20 μl, mixing volume. Final top concentration of compound in the assay is 50 μM. […] 1-90 min enzyme/substrate reaction, 30 min reaction with phenyl glyoxal at 37° C. • Stop solution: 40 μl 5% TCA in ACN
0.13 μL of compound solution was added to 13 μL of 10 nM PAD4 in assay buffer. After 30 min 13 μl of 500 μM of BAEE was added in 25 mM hepes, pH 7.5, 5 mM NaCl, 1 mM DTT, 0.2 mg/ml BS A, 0.01% CHAPS, 50 μM Calcium, 5 μM TPEN was added and the reaction incubated for 90 min at 37° C. The enzymatic reaction was quenched by addition of 15 μl of 6.1N TCA, 100% Final Concentration is 20%, 35 μl of 8.5 mM phenyl glyoxal (final concentration 4 mM) is then added and the reaction is incubated for 30 min at 37° C.
After 30 minutes the plates are spun down to remove all precipitate. The enzyme reaction was quenched with an equal volume of methanol containing internal standard (modified citrulline). Samples were loaded onto the Rapid Fire RF300 system (Agilent) wherein they were first sipped for 1000 ms and then directly loaded to a C18 separations cartridge using a mixture of acetonitrile containing 0.01% formic acid for 3000 ms desalting. The flow rate of the mobile phase was 1.5 ml/min.
The dwell time for each transition was set at 200 ms, and the ESI voltage was used at 5500 with a source temperature of 400° C. Extracted ion peaks for each transition were integrated using the Rapid Fire Integrator software. Peak area of analyte was normalized with internal standard).

human PAD4 (hPAD4), sequence (Q9UM07 whole entry): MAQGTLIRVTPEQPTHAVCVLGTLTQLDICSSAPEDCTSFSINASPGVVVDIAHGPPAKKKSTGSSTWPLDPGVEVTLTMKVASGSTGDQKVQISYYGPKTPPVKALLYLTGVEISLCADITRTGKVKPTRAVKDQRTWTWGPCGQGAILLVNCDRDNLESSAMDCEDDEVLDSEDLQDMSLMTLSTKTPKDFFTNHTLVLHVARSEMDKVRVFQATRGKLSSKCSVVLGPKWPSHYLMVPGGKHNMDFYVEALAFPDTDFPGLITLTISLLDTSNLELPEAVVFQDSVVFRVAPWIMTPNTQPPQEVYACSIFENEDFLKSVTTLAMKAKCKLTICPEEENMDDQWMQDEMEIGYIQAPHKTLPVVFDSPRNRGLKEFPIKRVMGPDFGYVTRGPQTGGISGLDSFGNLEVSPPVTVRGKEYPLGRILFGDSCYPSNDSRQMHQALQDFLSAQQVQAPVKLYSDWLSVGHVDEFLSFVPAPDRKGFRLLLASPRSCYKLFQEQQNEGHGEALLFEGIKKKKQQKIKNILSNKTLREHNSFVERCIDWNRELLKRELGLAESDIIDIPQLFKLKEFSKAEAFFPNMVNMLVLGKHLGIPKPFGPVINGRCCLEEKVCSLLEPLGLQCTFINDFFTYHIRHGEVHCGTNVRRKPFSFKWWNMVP

Structure (SMILES)	IC50 [nM]
COc1cc(C(=O)N2C[C@H]3CC[C@@H]2[C@@H]3N)cc2nc(-c3cc4cccnc4n3CC3CC3)n(CC3CN(c4cc(C#N)cnc4C#N)C3)c12 [Example 12, 3-[3-({5-[(1R,4R,7R)-7-amino-2-azabicyclo[2.2.1]heptane-2-carbonyl]-2-[1-(cyclopropylmethyl)-1H-pyrrolo[2,3-b]pyridin-2-yl]-7-methoxy-1H-1,3-benzodiazol-1-yl}methyl)azetidin-1-yl]pyridine-2,5-dicarbonitrile]	38
COc1cc(C(=O)N2C[C@H]3CC[C@@H]2[C@@H]3N)cc2nc(-c3cc4cccnc4n3CC3CC3)n(CC3CN(c4ccnc(S(C)(=O)=O)n4)C3)c12 [Example 13, (1R,4R,7R)-2-{2-[1-(cyclopropylmethyl)-1H-pyrrolo[2,3-b]pyridin-2-yl]-1-{[1-(2-methanesulfonylpyrimidin-4-yl)azetidin-3-yl]methyl}-7-methoxy-1H-1,3-benzodiazole-5-carbonyl}-2-azabicyclo[2.2.1]heptan-7-amine]	38
COc1cc(C(=O)N2C[C@H]3CC[C@@H]2[C@@H]3N)cc2nc(-c3cc4cccnc4n3CC3CC3)n(CC3CN(c4nc(C#N)ncc4C#N)C3)c12 [Example 14, 4-[3-({5-[(1R,4R,7R)-7-amino-2-azabicyclo[2.2.1]heptane-2-carbonyl]-2-[1-(cyclopropylmethyl)-1H-pyrrolo[2,3-b]pyridin-2-yl]-7-methoxy-1H-1,3-benzodiazol-1-yl}methyl)azetidin-1-yl]pyrimidine-2,5-dicarbonitrile]	46
COc1cc(C(=O)N2C[C@H]3CC[C@@H]2[C@@H]3N)cc2nc(-c3cc4cccnc4n3CC3CC3)n(CC3CN(c4nccnc4C#N)C3)c12 [Example 15, 3-[3-({5-[(1R,4R,7R)-7-amino-2-azabicyclo[2.2.1]heptane-2-carbonyl]-2-[1-(cyclopropylmethyl)-1H-pyrrolo[2,3-b]pyridin-2-yl]-7-methoxy-1H-1,3-benzodiazol-1-yl}methyl)azetidin-1-yl]pyrazine-2-carbonitrile]	47
COc1cc(C(=O)N2C[C@H]3CC[C@@H]2[C@@H]3N)cc2nc(-c3cc4cccnc4n3CC3CC3)n(CC3CN(c4ccnc(C)n4)C3)c12 [Example 16, (1R,4R,7R)-2-{2-[1-(cyclopropylmethyl)-1H-pyrrolo[2,3-b]pyridin-2-yl]-7-methoxy-1-{[1-(2-methylpyrimidin-4-yl)azetidin-3-yl]methyl}-1H-1,3-benzodiazole-5-carbonyl}-2-azabicyclo[2.2.1]heptan-7-amine]	48
COc1cc(C(=O)N2C[C@H]3CC[C@@H]2[C@@H]3N)cc2nc(-c3cc4cccnc4n3CC3CC3)n(CC3CN(c4cnc(C#N)nc4)C3)c12 [Example 17, 5-[3-({5-[(1R,4R,7R)-7-amino-2-azabicyclo[2.2.1]heptane-2-carbonyl]-2-[1-(cyclopropylmethyl)-1H-pyrrolo[2,3-b]pyridin-2-yl]-7-methoxy-1H-1,3-benzodiazol-1-yl}methyl)azetidin-1-yl]pyrimidine-2-carbonitrile]	50
COc1cc(C(=O)N2C[C@H]3CC[C@@H]2[C@@H]3N)cc2nc(-c3cc4cccnc4n3CC3CC3)n(CC3CN(c4ccnc(S(C)(=O)=O)n4)C3)c12 [Example 18, (1R,4R,7R)-2-{2-[1-(cyclopropylmethyl)-1H-pyrrolo[2,3-b]pyridin-2-yl]-1-{[1-(2-methanesulfonylpyrimidin-4-yl)azetidin-3-yl]methyl}-7-methoxy-1H-1,3-benzodiazole-5-carbonyl}-2-azabicyclo[2.2.1]heptan-7-amine]	54
COc1cc(C(=O)N2C[C@H]3CC[C@@H]2[C@@H]3N)cc2nc(-c3cc4ccccc4n3CC3CC3)n(CC3CN(c4cncnc4C#N)C3)c12 [Example 19, 5-[3-({5-[(1R,4R,7R)-7-amino-2-azabicyclo[2.2.1]heptane-2-carbonyl]-2-[1-(cyclopropylmethyl)-1H-indol-2-yl]-7-methoxy-1H-1,3-benzodiazol-1-yl}methyl)azetidin-1-yl]pyrimidine-4-carbonitrile]	55
